Values quoted from earlier work, collected in patent US20220117919A1, “ENHANCED BIOAVAILABILITY OF N-(2,6-BIS(1-METHYLETHYL)PHENYL)-N'-((1-(4-(DIMETHYLAMINO)-PHENYL)CYCLOPENTYL)METHYL)UREA HYDROCHLORIDE” (The Regents of the University of Michigan, priority 2015, published 2022).

System: adrenocortical carcinoma (ACC)
Conditions: cited from earlier work

For `Clc1ccc(C(c2ccccc2Cl)C(Cl)Cl)cc1` (centres unmarked) [mitotane], the “average delay of disease progression” value (ACC patients that derive a therapeutic benefit) is given as “five” and the “share of patients with increased progression-free survival” value (ACC patients) is given as “one-quarter to one-third”.
